This is an account of results in US20190262355A1, “COMBINATION OF A BRD4 INHIBITOR AND AN ANTIFOLATE FOR THE THERAPY OF CANCER” (CeMM-Forschungszentrum für Molekulare Medizin GmbH, priority 2016, published 2019).

No end group written: not given here.

The subject of one assay is WT-KBM7 cells. Nature of the assay: Cell cycle profile by PI staining and FACS (diploidization). It is filed as cell-based, human. The conditions noted are these: treated overnight during one week, PI incorporation and FACS (FIG. 6D). The procedure: For cell cycle analysis, 1 million cells were fixed with 70% ethanol for 24 hours, washed with PBS/1% BSA/0.1% Tween and incubated with RNase for 30 minutes. Nuclei were stained with 5 μg/ml PI (propidium iodide, Sigma) for 10 minutes prior to FACS analysis (BD FACSCalibur Flow Cytometer).
The prerequisite for effective GT genetic screens is a haploid system where monoallelic disruptive GT integration results in gene knock-out (KO). Therefore, KBM7 cells, a chronic myeloid leukemia cell line with near haploid karyotype, were chosen for the generation of the BRD4 reporter cell lines as previously described^15. […] Propidium iodide (PI) incorporation and FACS analysis were used to assay the cell cycle profile of several REDS clones in order to select a haploid clone suitable for GT-based genetic screen. […] REDS1 was the only clonal cell line with haploid karyotype (see FIG. 6B), also confirmed by metaphase spreads (see FIG. 6C).

Assay [1] has as its target T1, chromatin-associated MTHFD1 (Homo sapiens, UniProt P11586).
T1 construct: endogenous in cells; host or cells: HAP1
T1 sequence (P11586 1-935): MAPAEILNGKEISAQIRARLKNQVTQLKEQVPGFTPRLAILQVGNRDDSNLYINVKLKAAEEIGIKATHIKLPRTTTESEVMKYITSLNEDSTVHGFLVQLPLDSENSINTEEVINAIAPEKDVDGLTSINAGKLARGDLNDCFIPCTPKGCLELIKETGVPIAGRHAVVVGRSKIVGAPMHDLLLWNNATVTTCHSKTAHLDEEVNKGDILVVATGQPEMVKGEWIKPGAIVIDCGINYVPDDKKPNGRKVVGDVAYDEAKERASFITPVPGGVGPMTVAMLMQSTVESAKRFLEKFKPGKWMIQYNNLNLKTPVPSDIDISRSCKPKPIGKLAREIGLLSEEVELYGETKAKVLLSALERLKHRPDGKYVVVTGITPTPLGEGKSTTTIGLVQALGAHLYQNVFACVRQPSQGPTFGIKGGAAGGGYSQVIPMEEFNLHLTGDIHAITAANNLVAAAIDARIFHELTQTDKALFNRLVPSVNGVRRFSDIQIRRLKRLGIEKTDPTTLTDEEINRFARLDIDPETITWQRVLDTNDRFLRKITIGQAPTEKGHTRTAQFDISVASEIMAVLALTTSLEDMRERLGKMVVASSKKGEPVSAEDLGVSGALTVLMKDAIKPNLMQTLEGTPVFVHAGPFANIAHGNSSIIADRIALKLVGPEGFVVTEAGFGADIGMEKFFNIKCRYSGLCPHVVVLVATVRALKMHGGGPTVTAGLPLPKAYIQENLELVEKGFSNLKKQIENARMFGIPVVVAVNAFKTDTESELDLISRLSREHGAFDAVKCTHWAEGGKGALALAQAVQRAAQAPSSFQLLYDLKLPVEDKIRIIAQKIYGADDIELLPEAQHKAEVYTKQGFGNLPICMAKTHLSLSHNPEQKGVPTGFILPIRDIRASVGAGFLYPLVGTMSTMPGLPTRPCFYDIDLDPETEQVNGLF
Kind of assay: Western blot of chromatin associated proteins: MTHFD1. The conditions noted are these: HAP1 cells, two-hour treatment, 0.5 μM (FIG. 2C). The assay is classed as cell-based. The procedure:
(§1) For Western Blot, proteins were separated on polyacrylamide gels with SDS running buffer (50 mM Tris, 380 mM Glycine, 7 mM SDS) and transferred to nitrocellulose blotting membranes. All membranes were blocked with blocking buffer (5% (m/v) milk powder (BioRad) in TBST (Tris-Buffered Saline with Tween: 50 mM Tris (tris (hydroxymethyl)aminomethane), 150 mM NaCl, 0.05% (v/v) Tween 20, adjusted to pH 7.6). Proteins were probed with antibodies against BRD4 (ab128874, 1:1000, Abcam), Actin (ab16039, 1:1000, Abcam), MTHFD1 (ab70203, Abcam; H120, Santa Cruz; A8, Santa Cruz; all used at 1:1000), GFP (G10362, 1:1000, Life Technology), RCC1 (C-20, 1:1000, Santa Cruz), β-Tubulin (T-4026, 1:1000, Sigma), SHMT1 (ab186130, 1:1000, Abcam) and H2B (ab156197, 1:1000, Abcam) and detected by HRP (horseradish peroxidase) conjugated donkey anti-rabbit IgG antibody (ab16284, 1:5000, Abcam) or donkey anti-mouse IgG antibody (Pierce) and visualized with the Pierce ECL Western Blotting substrate (Amersham), according to the provided protocol.
Cell fractionation and chromatin enrichment was carried out as previously described^29 with some adaptations. […]
(In general: Immunoblotting shows a protein as a band on a membrane.)

Assay [2] relates to MTHFD1 binding to genomic loci. Nature of the assay: ChIP-Seq of MTHFD1 genomic binding in HAP1 cells. Particulars: 2 h treatment (1 μM per FIG. 16A). It is filed as cell-based, human. As for the experimental part:
Three 15 cm dishes with cells at 70-80% of confluency were used for one ChIP experiment. Briefly, cells were cross-linked with 1% formaldehyde for 10 minutes at room temperature, and then quenched with 125 mM glycine for 5 minutes at room temperature. Then, cells were washed with cold PBS, collected in 15 ml tubes and washed again with cold PBS by centrifugation at 1200 rpm for 5 minutes at 4° C. and finally snap frozen.
ChIP was performed as described^18 by using BRD4 (Bethyl Laboratories, Inc.) and MTHFD1 (sc-271413, Santa Cruz) antibodies. In brief, crosslinked cell lysates were sonicated in order to shred the chromatin into 200-500 bp fragments. Fragmented chromatin was incubated overnight at 4° C. with antibodies, followed by 2 hours at 4° C. with pre-blocked Dynabeads Protein G (ThermoFisher Scientific). […]
Reads containing adapters were trimmed using Skewer^19 and aligned to the hg19/GRCh37 assembly of the Human genome using Bowtie2^20 with the “—very-sensitive” parameter and duplicate reads were marked and removed with sambamba. Library quality was assessed with the phantomPeakQualtools scripts^21. For visualization exclusively, the inventors generated genome browser tracks with the genomeCoverageBed command in BEDTools^22 and normalized such that each value represents the read count per base pair per million mapped and filtered reads. […]

A further assay concerns the target T2, BRD4-MTHFD1 interaction (Homo sapiens, UniProt O60885+P11586).
T2 construct: MTHFD1 pull-down performed on HAP1 whole cell lysates treated with 50 μM (S)-JQ1, MTX; endogenous in cells; host or cells: HAP1
Nature of the assay: MTHFD1 pull-down on HAP1 whole cell lysates (BRD4-MTHFD1 interaction). The assay is classed as binding. Particulars: HAP1 whole cell lysates treated with 50 μM (FIG. 9I). As for the experimental part: For immunoprecipitation, 1 mg of protein extract was incubated overnight at 4° C. with 10 μl of Dynabeads (either A or G, Life technology) preincubated for 2 hours at 4° C. with 1 μg of BRD4 (ab128874, Abcam), MTHFD1 (A8, Santa Cruz) or GFP (G10362, Life Technology) antibodies.

A further assay deals with T3, GST-BRD4 (full length) (Homo sapiens, UniProt O60885).
T3 construct: AlphaLISA assay performed with the indicated MTHFD1 acetylated peptides and GST-BRD4 (full length); made in house
Nature of the assay: AlphaLISA assay of acetylated MTHFD1 peptides with GST-BRD4. It is filed as binding. As for the experimental part: The Amplified Luminescent Proximity Homogenous Assay (AlphaLISA©), a homogenous and chemiluminescence-based method, was performed to explore the direct interaction of BRD4 and acetylated substrates.
Briefly, in this assay, the biotinylated MTHFD1 acetylated peptides (possible substrates) are captured by streptavidin-coupled donor beads. GST-tagged BRD4 (produced as previously described^15) is recognized and bound by an anti-GST antibody conjugated with an acceptor bead. In case of interaction between BRD4 and one acetylated peptide, the proximity between the partners (<200 nm) allows that the excitation (680 nm wavelength) of a donor bead induces the release of a singlet oxygen molecule (^1O2) that then triggers a cascade of energy transfer in the acceptor bead, resulting in a sharp peak of light emission at 615 nm.
GST-BRD4 and each of the MTHFD1 acetylated peptides were incubated together. After 30 minutes, GSH (Glutathione) Acceptor beads (PerkinElmer) were added and after another incubation time of 30 minutes, Streptavidin-conjugated donor beads (PerkinElmer) were added. The signal (alpha counts) was read by the EnVision 2104 Multilabel Reader (PerkinElmer).
On the technique in general: In Alpha technology, singlet oxygen from a donor bead excites a nearby acceptor bead.

The test system of assay [3] is MTHFD1 nuclear localization. Kind of assay: Nuclear vs cytosol fractionation Western blot in HAP1 cells. It is filed as cell-based, human. The conditions noted are these: 72 hours (FIG. 9D). The procedure:
as §1

In the case of `Cc1sc2c(c1C)C(c1ccc(Cl)cc1)=N[C@H](CC(=O)OC(C)(C)C)c1nnc(C)n1-2` [(R)-JQ1], in the assay on WT-KBM7 cells, the “diploidization of WT-KBM7 (cell cycle profile)” value is given as “Only (S)-JQ1 treatment induced WT-KBM7 diploidization”. `Cc1sc2c(c1C)C(c1ccc(Cl)cc1)=N[C@@H](CC(=O)NCCCCNC(=O)COc1cccc3c1C(=O)N(C1CCC(=O)NC1=O)C3=O)c1nnc(C)n1-2` (some centres unmarked) [dBET1]: the “MTHFD1 on chromatin after degronimid treatment” value in assay [1] is listed as “MTHFD1 was lost from chromatin”. On to `Cc1sc2c(c1C)C(c1ccc(Cl)cc1)=N[C@@H](CC(=O)NCCCCCCCCNC(=O)COc1cccc3c1C(=O)N(C1CCC(=O)NC1=O)C3=O)c1nnc(C)n1-2` (some centres unmarked) [dBET6], for which the “MTHFD1 binding to distinct genomic loci” value in assay [2] is reported as “binding was lost”. Also, the “MTHFD1 on chromatin after degronimid treatment” value in assay [1] was “MTHFD1 was lost from chromatin”. Turning to “MTHFD1(47-66)K56ac: synthetic biotinylated MTHFD1 peptide, residues 47-66, acetylated at lysine 56 (DDSNLYINVK(Ac)LKAAEEIGIK; also: biotinylated, site not given here; UniProt P11586 47-66, looked up, fragment)”, the “effect on BRD4-MTHFD1 interaction in MTHFD1 pull-down” value with BRD4-MTHFD1 interaction was “not able to inhibit the BRD4-MTHFD1 interaction”. In addition, in the assay with GST-BRD4 (full length) (peptide used at high concentration (FIG. 9F)), the “increase of the alphaLISA signal” value is listed as roughly 5 fold. Moreover, the “alphaLISA peptide titration with GST-BRD4” value with GST-BRD4 (full length) (titration (FIG. 9G)) was “dose-responsive manner”.

On to ginkgolic acid, for which, in assay [3], the “redistribution of MTHFD1 between nucleus and cytoplasm” value is “did not cause a redistribution of MTHFD1 between the nucleus and cytoplasm”.
